Data published in the supplement of paper PMC11451515.

System: SEM cells
Assay: cell viability relative to DMSO control; higher = less cytotoxic
Details: 48 h
Method in brief: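 In 1536-well plates, 5 μl of leukemia cells were seeded per well: 500 cells/well for NOMO1 or SEM and 1000 cells/well for P12-Ichikawa. Each line had first been adapted for at least four passages in each medium. Library compounds in DMSO were pin-dosed at 11 threefold concentrations between 47 μM and 0.79 nM, and CellTiter-Glo One luminescence was read after 48 h at 37°C. Viability is a per-plate percentage relative to DMSO wells, with cell-free wells as background.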

[1] = HPLM + 10% dialyzed FBS, 0.000781 µM
[2] = HPLM + 10% dialyzed FBS, 0.00234 µM
[3] = HPLM + 10% dialyzed FBS, 0.00702 µM
[4] = HPLM + 10% dialyzed FBS, 0.0211 µM
[5] = HPLM + 10% dialyzed FBS, 0.0632 µM
[6] = HPLM + 10% dialyzed FBS, 0.19 µM
[7] = HPLM + 10% dialyzed FBS, 0.569 µM
[8] = HPLM + 10% dialyzed FBS, 1.71 µM
[9] = HPLM + 10% dialyzed FBS, 5.12 µM
[10] = HPLM + 10% dialyzed FBS, 15.4 µM
[11] = HPLM + 10% dialyzed FBS, 46.1 µM
[12] = RPMI 5 mM glucose + 10% FBS, 0.000781 µM
[13] = RPMI 5 mM glucose + 10% FBS, 0.00234 µM
[14] = RPMI 5 mM glucose + 10% FBS, 0.00702 µM
[15] = RPMI 5 mM glucose + 10% FBS, 0.0211 µM
[16] = RPMI 5 mM glucose + 10% FBS, 0.0632 µM
[17] = RPMI 5 mM glucose + 10% FBS, 0.19 µM
[18] = RPMI 5 mM glucose + 10% FBS, 0.569 µM
[19] = RPMI 5 mM glucose + 10% FBS, 1.71 µM
[20] = RPMI 5 mM glucose + 10% FBS, 5.12 µM
[21] = RPMI 5 mM glucose + 10% FBS, 15.4 µM
[22] = RPMI 5 mM glucose + 10% FBS, 46.1 µM
[23] = RPMI 5 mM glucose + 10% dialyzed FBS, 0.000781 µM
[24] = RPMI 5 mM glucose + 10% dialyzed FBS, 0.00234 µM
[25] = RPMI 5 mM glucose + 10% dialyzed FBS, 0.00702 µM
[26] = RPMI 5 mM glucose + 10% dialyzed FBS, 0.0211 µM
[27] = RPMI 5 mM glucose + 10% dialyzed FBS, 0.0632 µM
[28] = RPMI 5 mM glucose + 10% dialyzed FBS, 0.19 µM
[29] = RPMI 5 mM glucose + 10% dialyzed FBS, 0.569 µM
[30] = RPMI 5 mM glucose + 10% dialyzed FBS, 1.71 µM
[31] = RPMI 5 mM glucose + 10% dialyzed FBS, 5.12 µM
[32] = RPMI 5 mM glucose + 10% dialyzed FBS, 15.4 µM
[33] = RPMI 5 mM glucose + 10% dialyzed FBS, 46.1 µM

| SMILES | cell viability [1] [%] | cell viability [2] [%] | cell viability [3] [%] | cell viability [4] [%] | cell viability [5] [%] | cell viability [6] [%] | cell viability [7] [%] | cell viability [8] [%] | cell viability [9] [%] | cell viability [10] [%] | cell viability [11] [%] | cell viability [12] [%] | cell viability [13] [%] | cell viability [14] [%] | cell viability [15] [%] | cell viability [16] [%] | cell viability [17] [%] | cell viability [18] [%] | cell viability [19] [%] | cell viability [20] [%] | cell viability [21] [%] | cell viability [22] [%] | cell viability [23] [%] | cell viability [24] [%] | cell viability [25] [%] | cell viability [26] [%] | cell viability [27] [%] | cell viability [28] [%] | cell viability [29] [%] | cell viability [30] [%] | cell viability [31] [%] | cell viability [32] [%] | cell viability [33] [%] |
| --- | --- | --- | --- | --- | --- | --- | --- | --- | --- | --- | --- | --- | --- | --- | --- | --- | --- | --- | --- | --- | --- | --- | --- | --- | --- | --- | --- | --- | --- | --- | --- | --- | --- |
| CC[C@H](CC[C@@H](C)[C@H]1CC[C@H]2[C@@H]3C\C=C/4C[C@@H](O)CC[C@]4(C)[C@H]3CC[C@]12C)C(C)C | 119 | 130 | 123 | 139 | 129 | 128 | 114 | 116 | 116 | 122 | 95.8 | 117 | 114 | 126 | 119 | 131 | 116 | 124 | 110 | 115 | 114 | 92.3 | 124 | 144 | 122 | 115 | 147 | 126 | 125 | 129 | 138 | 121 | 94.6 |
| CN(C)CCOc1cc(-c2cn[nH]c2)ccc1NC(=O)C1COc2ccccc2O1 (stereo not drawn) | 87.1 | 84.6 | 101 | 105 | 106 | 106 | 98.5 | 102 | 80.1 | 71.7 | 56.2 | 101 | 95 | 108 | 94.9 | 118 | 90.7 | 103 | 96 | 105 | 69.3 | 61.3 | 107 | 101 | 110 | 108 | 94.6 | 104 | 93.1 | 102 | 98.3 | 71.8 | 68.9 |
| CC1(C)CC(=O)c2c(C(F)(F)F)nn(-c3ccc(C(N)=O)c(NC4CCC(O)CC4)c3)c2C1 (stereo not drawn) | 93.6 | 84.7 | 88.6 | 98 | 93.5 | 36.8 | 20.9 | 18.4 | 19.2 | 16.9 | 77.6 | 105 | 97.5 | 84.4 | 84.2 | 111 | 37.1 | 15.7 | 19.4 | 16.1 | 17.4 | 99.9 | 83.7 | 102 | 66.3 | 63.5 | 76.6 | 34.4 | 12.8 | 20.6 | 17.8 | 18.1 | 84.3 |
| CC1(C)Cc2c(-c3ccccc3)c(-c3ccc(Cl)cc3)c(CC(=O)O)n2C1 | 116 | 124 | 116 | 129 | 126 | 106 | 124 | 91.9 | 124 | 112 | 95.1 | 116 | 120 | 129 | 122 | 110 | 96.3 | 105 | 92.8 | 110 | 101 | 90.7 | – | – | – | – | – | – | – | – | – | – | – |
| Cc1ccc(NC(=O)c2ccc(CN3CCN(C)CC3)cc2)cc1Nc1nc(-c2cccnc2)cs1 | 56.2 | 90.4 | 87.9 | 65.4 | 53.1 | 47.6 | 42.4 | 32.7 | 28.2 | 20.2 | 24.6 | 64.8 | 99 | 93.2 | 71.2 | 70.9 | 51.7 | 43.7 | 34.8 | 23.6 | 15.7 | 17.1 | 54.5 | 88.4 | 74.7 | 65.1 | 63.6 | 46.7 | 37.5 | 29.7 | 22.1 | 10.9 | 18 |
| O=NN(CCCl)C(=O)NCCCl | 75.9 | 89 | 117 | 86.6 | 100 | 121 | 107 | 121 | 94.1 | 110 | 85.8 | 85.4 | 105 | 104 | 110 | 121 | 119 | 119 | 125 | 129 | 118 | 102 | 80.1 | 88.3 | 100 | 87.4 | 113 | 108 | 102 | 117 | 111 | 107 | 84.3 |
| CC1(C)CCC[C@]2(C)[C@H]3CC(=O)O[C@]3(C)CC[C@@H]12 | 101 | 103 | 102 | 116 | 119 | 95.2 | 116 | 118 | 115 | 101 | 93.3 | 110 | 114 | 106 | 107 | 106 | 115 | 119 | 115 | 112 | 82.2 | 100 | 114 | 106 | 116 | 126 | 104 | 112 | 121 | 111 | 119 | 79.2 | 99.1 |
| c1cncc(CN2CCC(n3ncc4c(N5CCOCC5)nc(-c5ccc6[nH]ccc6c5)nc43)CC2)c1 | 93.8 | 88.8 | 98.3 | 90 | 101 | 81 | 66.6 | 69.2 | 73.4 | 58.9 | 33.1 | 123 | 117 | 111 | 103 | 105 | 95.4 | 68.2 | 93 | 80.3 | 37.1 | 11.6 | 87.1 | 88.4 | 94.7 | 87.2 | 87.3 | 96.4 | 61.9 | 76.2 | 66.5 | 32.6 | 8.23 |
